Structures can show the parent of a compound that is named as a salt.
Compound | melting point [°C]
CCOc1cc([C@@H](CC(=O)N(C)C)N2Cc3c(Cl)ccc(NC(=O)C4CC4)c3C2=O)ccc1OC [Example 15, (1R)-Cyclopropanecarboxylic acid {7-chloro-2-[2-dimethylcarbamoyl-1-(3-ethoxy-4-methoxy-phenyl)-ethyl]-3-oxo-2,3-dihydro-1H-isoindol-4-yl}-amide] | 163 to 165
CCOc1cc([C@@H](CCNO)N2Cc3cccc(NC(=O)C4CC4)c3C2=O)ccc1OC [Example 3, (1R)-Cyclopropanecarboxylic acid {2-[1-(3-ethoxy-4-methoxy-phenyl)-3-hydroxyamino-propyl]-3-oxo-2,3-dihydro-1H-isoindol-4-yl}-amide] | 136 to 138
CCOc1cc([C@@H](CS(C)(=O)=O)N2Cc3c(Cl)ccc(NC(=O)CN4CCOCC4)c3C2=O)ccc1OC.Cl | 198 to 200
CCOc1cc([C@@H](CCNC(N)=O)N2Cc3cccc(NC(=O)C4CC4)c3C2=O)ccc1OC [Example 6, (1R)-Cyclopropanecarboxylic acid {2-[1-(3-ethoxy-4-methoxy-phenyl)-3-ureido-propyl]-3-oxo-2,3-dihydro-1H-isoindol-4-yl}-amide] | 162 to 164
CCOc1cc([C@@H](CCS(C)(=O)=O)N2Cc3cccc(NC(=O)C4CC4)c3C2=O)ccc1OC [Example 8, (1R)-Cyclopropanecarboxylic acid {2-[1-(3-ethoxy-4-methoxy-phenyl)-3-methanesulfonyl-propyl]-3-oxo-2,3-dihydro-1H-isoindol-4-yl}-amide] | 148 to 150
CCOc1cc(C(CCN(OC(=O)OC(C)(C)C)C(=O)OC(C)(C)C)N2Cc3cccc(NC(=O)C4CC4)c3C2=O)ccc1OC [Example 2, (3R)-(tert-Butoxy)-N-{3-[7-(cyclopropylcarbonylamino)-1-oxoisoindolin-2-yl]-3-(3-ethoxy-4-methoxyphenyl)propyl}carbonylamino(tert-butoxy)formate] | 153 to 155
CCOc1cc([C@@H](CC(=O)O)N2Cc3c(Cl)ccc(NC(=O)C4CC4)c3C2=O)ccc1OC [Example 12, (3R)-3-[4-Chloro-7-(cyclopropanecarbonyl-amino)-1-oxo-1,3-dihydro-isoindol-2-yl]-3-(3-ethoxy-4-methoxy-phenyl)-propionic acid] | 118 to 120
CCOc1cc([C@@H](CCN)N2Cc3cccc(NC(=O)C4CC4)c3C2=O)ccc1OC (as salt: salt) [Example 5, (1R)-Cyclopropanecarboxylic acid {2-[3-amino-1-(3-ethoxy-4-methoxy-phenyl)-propyl]-3-oxo-2,3-dihydro-1H-isoindol-4-yl}-amide] | 169 to 171
CCOc1cc([C@@H](CS(C)(=O)=O)N2Cc3c(Cl)ccc(NC(=O)CN(C)C)c3C2=O)ccc1OC.Cl | 198 to 200
CCOc1cc([C@@H](CS(C)(=O)=O)N2Cc3c(Cl)ccc(NC(=O)C4CC4)c3C2=O)ccc1OC [Example 18, (1S)-Cyclopropanecarboxylic acid {7-chloro-2-[1-(3-ethoxy-4-methoxy-phenyl)-2-methanesulfonyl-ethyl]-3-oxo-2,3-dihydro-1H-isoindol-4-yl}-amide] | 197 to 199
CCOc1cc([C@@H](CC(=O)NO)N2Cc3cccc(NC(=O)C4CC4)c3C2=O)ccc1OC [Example 9, (1R)-Cyclopropanecarboxylic acid {2-[1-(3-ethoxy-4-methoxy-phenyl)-2-hydroxycarbamoyl-ethyl]-3-oxo-2,3-dihydro-1H-isoindol-4-yl}-amide] | 160 to 162
CCOc1cc([C@@H](CC(N)=O)N2Cc3c(Cl)ccc(NC(=O)C4CC4)c3C2=O)ccc1OC [Example 14, (1R)-Cyclopropanecarboxylic acid {2-[2-carbamoyl-1-(3-ethoxy-4-methoxy-phenyl)-ethyl]-7-chloro-3-oxo-2,3-dihydro-1H-isoindol-4-yl}-amide] | 201 to 203
CCOc1cc([C@@H](CC(=O)OC)N2Cc3c(Cl)ccc(NC(=O)C4CC4)c3C2=O)ccc1OC [Example 13, (3R)-3-[4-Chloro-7-(cyclopropanecarbonyl-amino)-1-oxo-1,3-dihydro-isoindol-2-yl]-3-(3-ethoxy-4-methoxy-phenyl)-propionic acid methyl ester] | 158 to 160
CCOc1cc([C@@H](CCN(C)C)N2Cc3cccc(NC(=O)C4CC4)c3C2=O)ccc1OC.Cl | 119 to 121
CCOc1cc([C@@H](CC[S+](C)[O-])N2Cc3cccc(NC(=O)C4CC4)c3C2=O)ccc1OC (stereo partly drawn) [Example 11, (3R)-Cyclopropanecarboxylic acid {2-[1-(3-ethoxy-4-methoxy-phenyl)-3-methanesulfinyl-propyl]-3-oxo-2,3-dihydro-1H-isoindol-4-yl}-amide] | 122 to 125
CCOc1cc([C@@H](CCNS(C)(=O)=O)N2Cc3cccc(NC(=O)C4CC4)c3C2=O)ccc1OC [Example 4, (1R)-Cyclopropanecarboxylic acid {2-[1-(3-ethoxy-4-methoxy-phenyl)-3-methanesulfonylamino-propyl]-3-oxo-2,3-dihydro-1H-isoindol-4-yl}-amide] | 93 to 95
CCOc1cc([C@@H](CC(=O)NOC(C)=O)N2Cc3c(Cl)ccc(NC(=O)C4CC4)c3C2=O)ccc1OC [Example 17, (1R)-Cyclopropanecarboxylic acid {2-[2-acetoxycarbamoyl-1-(3-ethoxy-4-methoxy-phenyl)-ethyl]-7-chloro-3-oxo-2,3-dihydro-1H-isoindol-4-yl}-amide] | 139 to 141
CCOc1cc([C@@H](CCO)N2Cc3cccc(NC(=O)C4CC4)c3C2=O)ccc1OC [Example 1, (1R)-Cyclopropanecarboxylic acid {2-[1-(3-ethoxy-4-methoxy-phenyl)-3-hydroxy-propyl]-3-oxo-2,3-dihydro-1H-isoindol-4-yl}-amide] | 103 to 105
CCOc1cc([C@@H](CC(=O)NOC(C)=O)N2Cc3cccc(NC(=O)C4CC4)c3C2=O)ccc1OC [Example 10, (1R)-Cyclopropanecarboxylic acid {2-[2-acetoxycarbamoyl-1-(3-ethoxy-4-methoxy-phenyl)-ethyl]-3-oxo-2,3-dihydro-1H-isoindol-4-yl}-amide] | 140 to 142

Second part, the compound after the results:

melting point [°C] | Compound
159 to 161 | CCOc1cc(C(Cc2c(Cl)cncc2Cl)N2Cc3cccc(NC(=O)C4CC4)c3C2=O)ccc1OC (stereo not drawn) [Example 22, Cyclopropanecarboxylic acid {2-[2-(3,5-dichloro-pyridin-4-yl)-1-(3-ethoxy-4-methoxy-phenyl)-ethyl]-3-oxo-2,3-dihydro-1H-isoindol-4-yl}-amide]
130 to 132 | CCOc1cc([C@@H](CC(=O)NOC(=O)C2CC2)N2Cc3cccc(NC(=O)C4CC4)c3C2=O)ccc1OC [Example 24, (1R)-Cyclopropanecarboxylic acid {2-[2-cyclopropanecarbonyloxycarbamoyl-1-(3-ethoxy-4-methoxy-phenyl)-ethyl]-3-oxo-2,3-dihydro-1H-isoindol-4-yl}-amide]
146 to 148 | CCOc1cc([C@@H](CC(=O)NOC(=O)C(C)(C)C)N2Cc3cccc(NC(=O)C4CC4)c3C2=O)ccc1OC [Example 26, (1R)-Cyclopropanecarboxylic acid {2-[2-(2,2-dimethyl-propionyloxycarbamoyl)-1-(3-ethoxy-4-methoxy-phenyl)-ethyl]-3-oxo-2,3-dihydro-1H-isoindol-4-yl}-amide]
90 to 92 | CCOc1cc([C@@H](CC(C)(C)O)N2Cc3cccc(NC(=O)C4CC4)c3C2=O)ccc1OC [Example 23, (1R)-Cyclopropanecarboxylic acid {2-[1-(3-ethoxy-4-methoxy-phenyl)-3-hydroxy-3-methyl-butyl]-3-oxo-2,3-dihydro-1H-isoindol-4-yl}-amide]
176 to 178 | CCOc1cc([C@@H](CS(C)(=O)=O)N2Cc3c(F)ccc(NC(=O)C4CC4)c3C2=O)ccc1OC [Example 28, (1S)-Cyclopropanecarboxylic acid {2-[1-(3-ethoxy-4-methoxy-phenyl)-2-methanesulfonyl-ethyl]-7-fluoro-3-oxo-2,3-dihydro-1H-isoindol-4-yl}-amide]
200 to 202 | CCOc1cc(C(CC#N)N2Cc3c(Cl)ccc(NC(=O)C4CC4)c3C2=O)ccc1OC (stereo not drawn) [Example 21, Cyclopropanecarboxylic acid {7-chloro-2-[2-cyano-1-(3-ethoxy-4-methoxy-phenyl)-ethyl]-3-oxo-2,3-dihydro-1H-isoindol-4-yl}-amide]
107 to 109 | CCOc1cc(C(CC)N2Cc3cccc(NC(=O)C4CC4)c3C2=O)ccc1OC (stereo not drawn) [Example 20, Cyclopropanecarboxylic acid {2-[1-(3-ethoxy-4-methoxy-phenyl)-propyl]-3-oxo-2,3-dihydro-1H-isoindol-4-yl}-amide]
205 to 207 | CCOc1cc([C@@H](CS(C)(=O)=O)N2Cc3c(Cl)ccc(NC(=O)N(C)C)c3C2=O)ccc1OC [Example 29, (1S)-3-{7-Chloro-2-[1-(3-ethoxy-4-methoxy-phenyl)-2-methanesulfonyl-ethyl]-3-oxo-2,3-dihydro-1H-isoindol-4-yl}-1,1-dimethyl-urea]
219 to 221 | CCOc1cc([C@@H](CS(C)(=O)=O)N2Cc3c(Br)ccc(NC(=O)C4CC4)c3C2=O)ccc1OC [Example 19, (1S)-Cyclopropanecarboxylic acid {7-bromo-2-[1-(3-ethoxy-4-methoxy-phenyl)-2-methanesulfonyl-ethyl]-3-oxo-2,3-dihydro-1H-isoindol-4-yl}-amide]
205 to 207 | CCOc1cc([C@@H](CS(C)(=O)=O)N2Cc3c(Cl)ccc(NC(=O)CN4CCN(C)CC4)c3C2=O)ccc1OC [Example 30, (1S)—N-{7-Chloro-2-[1-(3-ethoxy-4-methoxy-phenyl)-2-methanesulfonyl-ethyl]-3-oxo-2,3-dihydro-1H-isoindol-4-yl}-2-(4-methyl-piperazin-1-yl)-acetamide]
118 to 120 | CCOc1cc([C@@H](CC(=O)NOC(=O)CC(C)(C)C)N2Cc3cccc(NC(=O)C4CC4)c3C2=O)ccc1OC [Example 27, (1R)-Cyclopropanecarboxylic acid {2-[2-(3,3-dimethyl-butyryloxycarbamoyl)-1-(3-ethoxy-4-methoxy-phenyl)-ethyl]-3-oxo-2,3-dihydro-1H-isoindol-4-yl}-amide]

From US7799819B2, “7-Amido-isoindolyl compounds and their pharmaceutical uses” (Celgene Corporation, priority 2003, dated 2010)
